Measured values from article PMC7753147, “High-throughput determination of protein affinities using unmodified peptide libraries in nanomolar scale” (iScience, 2020).

Tests used:
gephE = experiment: µSPOT peptide microarray binding assay with recombinant gephE
native geph = experiment: µSPOT peptide microarray binding assay with native geph from mouse brain lysate
FL-geph = experiment: µSPOT peptide microarray binding assay with full-length geph
[1] = µSPOT peptide microarray, GlyRβ full positional scan, recombinant gephE, intensity normalised to wild-type sequence DLRSNDFSIVGSLPR (=1)
[2] = µSPOT peptide microarray, GlyRβ full positional scan, native geph from mouse brain lysate, intensity normalised to wild-type sequence DLRSNDFSIVGSLPR (=1)
[3] = µSPOT peptide microarray, GlyRβ full positional scan, intensity normalised to wild-type sequence DLRSNDFSIVGSLPR (=1)
[4] = µSPOT full positional scan of GlyRβ 15-mer DLRSNDFSIVGSLPR, intensity normalised to wild-type sequence (= 1)
[5] = µSPOT full positional scan of GlyRβ 15-mer DLRSNDFSIVGSLPR, native geph, intensity normalised to wild-type sequence (= 1)

Row | Sequence | gephE Binding Intensity [norm.] (gephE; [1]) | Native geph Binding Intensity [norm.] (native geph; [2]) | Fl-geph Binding Intensity [norm.] (FL-geph; [3]) | gephE Binding Intensity [norm.] (gephE; [4]) | Native geph Binding Intensity [norm.] (native geph; [5]) | Fl-geph Binding Intensity [norm.] (FL-geph; [4])
1 | DLRSNDFSKVGSLPR [GlyRβ_Full_Positional_Scan_174, GlyR β 414-428 variant I422K] | 0.47 norm. | 0.13 norm. | 0.58 norm. | – | – | –
2 | DLRSNDFSIVLSLPR [GlyRβ_Full_Positional_Scan_204, GlyR β 414-428 variant G424L] | 0.57 norm. | 0.23 norm. | 0.53 norm. | – | – | –
3 | DLRSNDFSIVGNLPR [GlyRβ_Full_Positional_Scan_239] | – | – | – | 0.74 norm. | 1.16 norm. | 1.17 norm.
4 | DLRSNAFSIVGSLPR [GlyRβ_Full_Positional_Scan_101] | 0.98 norm. | 0.77 norm. | 1.04 norm. | – | – | –
5 | DLRSLDFSIVGSLPR [GlyRβ_Full_Positional_Scan_084] | 0.92 norm. | 0.69 norm. | 0.86 norm. | – | – | –
6 | DLRSNDFSIPGSLPR [GlyRβ_Full_Positional_Scan_185, GlyR β 414-428 variant V423P] | 0.41 norm. | 0.31 norm. | 0.51 norm. | – | – | –
7 | DLRSNDFSIVGSKPR [GlyRβ_Full_Positional_Scan_254] | – | – | – | 0.59 norm. | 0.24 norm. | 0.68 norm.
8 | DLRSNDFSIVGSNPR [GlyRβ_Full_Positional_Scan_259] | – | – | – | 0.9 norm. | 0.97 norm. | 1.03 norm.
9 | DLRSNDFSIVGMLPR [GlyRβ_Full_Positional_Scan_238] | – | – | – | 0.77 norm. | 0.89 norm. | 0.88 norm.
10 | DLRSNDFSIAGSLPR [GlyRβ_Full_Positional_Scan_181, GlyR β 414-428 variant V423A] | 0.51 norm. | 0.47 norm. | 0.65 norm. | – | – | –
11 | NLRSNDFSIVGSLPR [GlyRβ_Full_Positional_Scan_019] | 1.15 norm. | 1.28 norm. | 1 norm. | – | – | –
12 | DLRSNDFSIRGSLPR [GlyRβ_Full_Positional_Scan_192, GlyR β 414-428 variant V423R] | 0.6 norm. | 0.21 norm. | 0.73 norm. | – | – | –
13 | DLRSNDFSIHGSLPR [GlyRβ_Full_Positional_Scan_193, GlyR β 414-428 variant V423H] | 0.32 norm. | 0.2 norm. | 0.46 norm. | – | – | –
14 | DLRCNDFSIVGSLPR [GlyRβ_Full_Positional_Scan_077] | 0.99 norm. | 0.77 norm. | 0.65 norm. | – | – | –
15 | DLRSDDFSIVGSLPR [GlyRβ_Full_Positional_Scan_090] | 0.96 norm. | 0.98 norm. | 0.94 norm. | – | – | –
